Source: patent US9770446B2, “Piperidine urea derivatives” (MERCK PATENT GMBH, priority 2013, dated 2017)

Legend:
Tankyrase = assay: Cellular inhibition of Tankyrase: Axin2 level in DLD1 cells (Luminex); type: cell-based; settings: 24 hours, Axin2 increase, read-out: EC50 [M] TNKS cellular assay
Method: Measurement of Cellular Inhibition of Tankyrase
Since Tankyrases have been described to modulate cellular level of Axin2 (Huang et al., 2009; Nature) the increase of Axin2 level is used as read-out for determination of cellular inhibition of Tankyrases in a Luminex based assay.
Cells of the colon carcinoma cell line DLD1 are plated in 96 well plates with 1.5×10^4 cells per well. Next day, cells are treated with a serial dilution of test compound in seven steps as triplicates with a final DMSO concentration of 0.3%. After 24 hours, cells are lysed in lysis buffer (20 mM Tris/HCl pH 8.0, 150 mM NaCl, 1% NP40, 10% Glycerol) and lysates are cleared by centrifugation through a 96 well filter plate (0.65 μm). Axin2 protein is isolated from cell lysates by incubation with a monoclonal anti-Axin2 antibody (R&D Systems #MAB6078) that is bound to fluorescent carboxybeads. Then, bound Axin2 is specifically detected with a polyclonal anti-Axin2 antibody (Cell Signaling #2151) and an appropriate PE-fluorescent secondary antibody. The amount of isolated Axin2 protein is determined in a Luminex^200 machine (Luminex Corporation) according to the manufacturer's instruction by counting 100 events per well. Inhibition of Tankyrase by test compounds results in higher levels of Axin2 which directly correlates with an increase of detectable fluorescence. As controls cells are treated with solvent alone (neutral control) and with a Tankyrase reference inhibitor IWR-2 (3E-06 M) which refers as control for maximum increase of Axin2. For analysis, the obtained data are normalized against the untreated solvent control and fitted for determination of the EC50 values using the Assay Explorer software (Accelrys).

His-tagged Parp-1 = target: T1, His-tagged Parp-1 (Homo sapiens, UniProt P09874); assay: PARP-1 autoparsylation HTRF assay; type: biochemical
T1 construct: purchased Enzo Life Sciences GmbH, Lörrach, Germany
Description: Description of the PARP1 Assay
Biochemical Activity Testing of PARP-1: Autoparsylation Assay
The autoparsylation assay is run in two steps: the enzymatic reaction in which His-tagged Parp-1 transfers biotinylated ADP-ribose/ADP-ribose to itself from biotinylated NAD/NAD as co-substrate and the detection reaction where a time resolved FRET between cryptate labelled anti-His antibody bound to the His tag of the enzyme and Xlent® labelled-streptavidin bound the biotin-parsylation residue is analysed. The autoparsylation activity is detectable directly via the increase in HTRF signal.
The autoparsylation assay is performed as 384-well HTRF® (Cisbio, Codolet, France) assay format in Greiner low volume nb 384-well microtiter plates. 35 nM His-tagged Parp-1 (human, recombinant, Enzo Life Sciences GmbH, Lörrach, Germany) and a mixture of 125 nM bio-NAD (Biolog, Life science Inst., Bremen, Germany) and 800 nM NAD as co-substrate are incubated in a total volume of 6 μl (100 mM Tris/HCl, 4 mM Mg-chloride, 0.01% IGEPAL® CA630, 1 mM DTT, 0.5% DMSO, pH 8, 13 ng/μl activated DNA (BPS Bioscience, San Diego, US)) in the absence or presence of the test compound (10 dilution concentrations) for 150 min at 23° C. The reaction is stopped by the addition of 4 μl of the Stop/detection solution (70 nM SA-Xlent® (Cisbio, Codolet, France), 2.5 nM Anti-His-K® (Eu-labelled anti-His, Cisbio, Codolet, France) in 50 mM HEPES, 400 mM KF, 0.1% BSA, 20 mM EDTA, pH 7.0). After 1 h incubation at room temperature the HTRF iss measured with an Envision multimode reader (Perkin Elmer LAS Germany GmbH) at excitation wavelength 340 nm (laser mode) and emission wavelengths 615 nm and 665 nm. The ratio of the emission signals is determined. The full value used is the inhibitor-free reaction. The pharmacological zero value used is Olaparib (LClabs, Woburn, US) in a final concentration of 1 μM. The inhibitory values (IC50) are determined using either the program Symyx Assay Explorer® or Condosseo® from GeneData.

[1] = target: T2, GST-tagged Tnks-2 (873-1166 aa) (Homo sapiens, UniProt Q9H2K2); assay: TNKS2 activity ELISA (autoparsylation assay); type: biochemical
T2 construct: GST-tagged Tnks-2 (873-1166 aa, prepared in-house); made in house
Method: (§1) Description of the TNKS1 and TNKS2 ELISA Assay
(§2) Biochemical Activity Testing of TNKS 1 and 2: Activity ELISA (Autoparsylation Assay)
(§3) For analysis of autoparsylation activity of TNKS 1 and 2 an activity ELISA iss performed: In the first step GST tagged TNKS is captured on a Glutathione coated plate. Then the activity assay with biotinylated NAD is performed in the absence/presence of the compounds. During the enzymatic reaction GST tagged TNKS transfers biotinylated ADP-ribose to itself from biotinylated NAD as co-substrate. For the detection streptavidin-HRP conjugate is added that binds to the biotinylated TNKS and is thereby captured to the plates. The amount of biotinylated resp. autoparsylated TNKS is detected with a luminescence substrate for HRP. The level of the luminescence signal correlates directly with the amount of autoparsylated TNKS and therefore with activity of TNKS.
(§4) The activity ELISA is performed in 384 well Glutathione coated microtiter plates (Express capture Glutathione coated plate, Biocat, Heidelberg, Germany). The plates are pre-equilibrated with PBS. Then the plates are incubated with 50 μl 20 ng/well GST-tagged Tnks-1 (1023-1327 aa, prepared in-house), respectively GST-tagged Tnks-2 (873-1166 aa, prepared in-house) in assay buffer (50 mM HEPES, 4 mM Mg-chloride, 0.05% Pluronic F-68, 2 mM DTT, pH 7.7) overnight at 4° C. The plates are washed 3 times with PBS-Tween-20. The wells are blocked by incubation at room temperature for 20 minutes with 50 μl blocking buffer (PBS, 0.05% Tween-20, 0.5% BSA). Afterwards the plates are washed 3 times with PBS-Tween-20. The enzymatic reaction is performed in 50 μl reaction solution (50 mM HEPES, 4 mM Mg-chloride, 0.05% Pluronic F-68, 1.4 mM DTT, 0.5% DMSO, pH 7.7) with 10 μM bio-NAD (Biolog, Life science Inst., Bremen, Germany) as co-substrate in the absence or presence of the test compound (10 dilution concentrations) for 1 hour at 30° C. The reaction is stopped by 3 times washing with PBS-Tween20. For the detection 50 μl of 20 ng/μl Streptavidin, HRP conjugate (MoBiTec, Göttingen, Germany) in PBS/0.05% Tween-20/0.01% BSA are added and the plates are incubated for 30 minutes at room temperature. After three times washing with PBS-Tween-20 50 μl of SuperSignal ELISA Femto Maximum sensitivity substrate solution (ThermoFisherScientific (Pierce), Bonn, Germany) are added. Following a 1 minute incubation at room temperature luminescence signals are measured with an Envision multimode reader (Perkin Elmer LAS Germany GmbH) at 700 nm. The full value used is the inhibitor-free reaction. The pharmacological zero value used is XAV-939 (Tocris) in a final concentration of 5 μM. The inhibitory values (IC50) are determined using either the program Symyx Assay Explorer® or Condosseo® from GeneData.

[2] = target: T3, GST-tagged Tnks-1 (1023-1327 aa) (Homo sapiens, UniProt O95271); assay: TNKS1 activity ELISA (autoparsylation assay); type: biochemical
T3 construct: GST-tagged Tnks-1 (1023-1327 aa, prepared in-house); made in house
Method: as §1, §2, §3, §4

ρ-catenin = settings: by increasing the levels of the AXIN1 and AXIN2 proteins; cited from earlier work
DLD-1-cancer cells = settings: cited from earlier work

T3 sequence (O95271 1023-1327): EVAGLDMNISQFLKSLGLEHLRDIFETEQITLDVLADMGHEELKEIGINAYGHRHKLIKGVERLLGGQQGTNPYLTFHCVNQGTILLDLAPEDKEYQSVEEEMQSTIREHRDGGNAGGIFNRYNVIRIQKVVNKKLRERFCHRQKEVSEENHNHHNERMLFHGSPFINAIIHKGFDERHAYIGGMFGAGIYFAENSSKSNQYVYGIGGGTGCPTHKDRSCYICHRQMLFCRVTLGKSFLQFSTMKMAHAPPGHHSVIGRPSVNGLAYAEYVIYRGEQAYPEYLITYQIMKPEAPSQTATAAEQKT
T2 sequence (Q9H2K2 873-1166): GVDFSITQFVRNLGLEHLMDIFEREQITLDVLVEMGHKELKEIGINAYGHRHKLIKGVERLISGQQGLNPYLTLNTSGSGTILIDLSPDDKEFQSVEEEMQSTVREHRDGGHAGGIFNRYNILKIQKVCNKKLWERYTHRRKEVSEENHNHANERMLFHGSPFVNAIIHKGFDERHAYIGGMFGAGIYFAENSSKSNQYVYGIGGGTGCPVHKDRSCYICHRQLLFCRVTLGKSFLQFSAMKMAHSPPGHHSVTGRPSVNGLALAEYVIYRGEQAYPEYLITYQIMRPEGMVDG
T1 sequence (P09874 whole entry): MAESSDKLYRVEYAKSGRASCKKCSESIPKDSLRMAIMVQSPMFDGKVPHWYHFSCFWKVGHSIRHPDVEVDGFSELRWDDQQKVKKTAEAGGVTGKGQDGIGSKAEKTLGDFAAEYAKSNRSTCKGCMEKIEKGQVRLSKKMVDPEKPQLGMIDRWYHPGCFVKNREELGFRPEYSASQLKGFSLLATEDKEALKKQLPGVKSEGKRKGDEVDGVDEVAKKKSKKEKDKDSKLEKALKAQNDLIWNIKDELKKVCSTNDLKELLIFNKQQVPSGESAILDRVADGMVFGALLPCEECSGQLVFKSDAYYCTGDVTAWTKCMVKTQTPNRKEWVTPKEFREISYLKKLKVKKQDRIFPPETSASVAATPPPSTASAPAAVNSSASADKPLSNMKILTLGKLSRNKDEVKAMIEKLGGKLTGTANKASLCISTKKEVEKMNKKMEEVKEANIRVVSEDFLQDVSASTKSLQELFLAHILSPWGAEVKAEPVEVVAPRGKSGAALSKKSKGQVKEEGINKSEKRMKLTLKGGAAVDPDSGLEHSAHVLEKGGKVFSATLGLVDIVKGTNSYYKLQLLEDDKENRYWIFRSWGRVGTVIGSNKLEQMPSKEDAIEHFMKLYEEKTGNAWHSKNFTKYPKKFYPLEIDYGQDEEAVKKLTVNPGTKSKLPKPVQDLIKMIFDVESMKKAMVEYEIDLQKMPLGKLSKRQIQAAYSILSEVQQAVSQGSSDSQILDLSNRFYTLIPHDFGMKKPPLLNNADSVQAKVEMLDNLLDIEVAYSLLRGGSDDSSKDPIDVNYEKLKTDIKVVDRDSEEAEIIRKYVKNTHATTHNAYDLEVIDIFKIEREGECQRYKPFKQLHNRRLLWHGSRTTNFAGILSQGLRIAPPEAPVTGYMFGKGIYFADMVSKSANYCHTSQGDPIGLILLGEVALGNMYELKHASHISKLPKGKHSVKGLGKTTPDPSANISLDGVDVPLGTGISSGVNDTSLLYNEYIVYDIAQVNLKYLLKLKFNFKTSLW

Q: For `COCCn1cc(-c2ccc(C(=O)C3CCN(C(=O)N(C)c4ccc(OC)cc4)CC3)cc2)cn1` [Compound A30, 4-{4-[1-(2-methoxy-ethyl)-1H-pyrazol-4-yl]-benzoyl}-piperidine-1-carboxylic acid (4-methoxy-phenyl)-methyl-amide], which EC50 (Tankyrase) is on record?
A: < 3e-07 M

Q: What about the IC50 (His-tagged Parp-1) of the same molecule?
A: 3000 to 50000 nM

Q: What about the IC50 [1] of the same molecule?
A: < 300 nM

Q: What about the IC50 [2] of the same molecule?
A: < 300 nM

Q: Which results are given for `COCCn1cc(-c2ccc(N(C)C(=O)N3CCC(C(=O)c4ccc(OC)cc4)CC3)cc2)cn1` [Compound A31, 4-(4-methoxy-benzoyl)-piperidine-1-carboxylic acid {4-[1-(2-methoxy-ethyl)-1H-pyrazol-4-yl]-phenyl}-methyl-amide]?
A: EC50 (Tankyrase): < 3e-07 M; IC50 (His-tagged Parp-1): 3000 to 50000 nM; IC50 [1]: < 300 nM; IC50 [2]: < 300 nM

Q: What does the source list for `COCCn1cc(-c2ccc(C(=O)C3CCN(C(=O)N(C)c4ccc(-c5cnn(CCOC)c5)cc4)CC3)cc2)cn1` [Compound A32, 4-{4-[1-(2-methoxy-ethyl)-1H-pyrazol-4-yl]-benzoyl}-piperidine-1-carboxylic acid {4-[1-(2-methoxy-ethyl)-1H-pyrazol-4-yl]-phenyl}-methyl-amide]?
A: EC50 (Tankyrase): < 3e-07 M; IC50 (His-tagged Parp-1): 3000 to 50000 nM; IC50 [1]: < 300 nM; IC50 [2]: < 300 nM

Q: For `CCn1cc(-c2ccc(C(=O)C3CCN(C(=O)N(C)c4ccc(OC)cc4)CC3)cc2)cn1` [Compound A33, 4-[4-(1-ethyl-1H-pyrazol-4-yl)-benzoyl]-piperidine-1-carboxylic acid (4-methoxy-phenyl)-methyl-amide], which EC50 (Tankyrase) is on record?
A: < 3e-07 M

Q: What about the IC50 (His-tagged Parp-1) of the same molecule?
A: 3000 to 50000 nM

Q: What about the IC50 [1] of the same molecule?
A: < 300 nM

Q: And the IC50 [2]?
A: < 300 nM

Q: Which EC50 (Tankyrase) does the source give for `CCn1cc(-c2ccc(N(C)C(=O)N3CCC(C(=O)c4ccc(OC)cc4)CC3)cc2)cn1` [Compound A34, 4-(4-methoxy-benzoyl)-piperidine-1-carboxylic acid [4-(1-ethyl-1H-pyrazol-4-yl)-phenyl]-methyl-amide] here?
A: < 3e-07 M

Q: What about the IC50 (His-tagged Parp-1) of the same molecule?
A: 3000 to 50000 nM

Q: What about the IC50 [1] of the same molecule?
A: < 300 nM

Q: What about the IC50 [2] of the same molecule?
A: < 300 nM

Q: For `COc1ccc(N(C)C(=O)N2CCC(C(=O)c3ccc(-c4cnn(CCN5CCCC5)c4)cc3)CC2)cc1` [Compound A35, 4-{4-[1-(2-pyrrolidin-1-yl-ethyl)-1H-pyrazol-4-yl]-benzoyl}-piperidine-1-carboxylic acid (4-methoxy-phenyl)-methyl-amide], which EC50 (Tankyrase) is on record?
A: < 3e-07 M

Q: And the IC50 (His-tagged Parp-1)?
A: 3000 to 50000 nM

Q: What about the IC50 [1] of the same molecule?
A: < 300 nM

Q: And the IC50 [2]?
A: < 300 nM

Q: Which EC50 (Tankyrase) does the source give for `COc1ccc(C(=O)C2CCN(C(=O)N(C)c3ccc(-c4cnn(CCN5CCCC5)c4)cc3)CC2)cc1` [Compound A36, 4-(4-methoxy-benzoyl)-piperidine-1-carboxylic acid methyl-{4-[1-(2-pyrrolidin-1-yl-ethyl)-1H-pyrazol-4-yl]-phenyl}-amide] here?
A: < 3e-07 M

Q: What about the IC50 (His-tagged Parp-1) of the same molecule?
A: 3000 to 50000 nM

Q: What about the IC50 [1] of the same molecule?
A: < 300 nM

Q: And the IC50 [2]?
A: < 300 nM

Q: With `CCOC(=O)CN(C(=O)N1CCC(C(=O)c2ccccc2)CC1)c1ccccc1` [Compound A39, [(4-benzoyl-piperidine-1-carbonyl)-phenyl-amino]-acetic acid ethyl ester] as the molecule, how does the EC50 (Tankyrase) read?
A: 3e-07 to 3e-06 M

Q: What about the IC50 (His-tagged Parp-1) of the same molecule?
A: 3000 to 50000 nM

Q: What about the IC50 [1] of the same molecule?
A: < 300 nM

Q: And the IC50 [2]?
A: < 300 nM

Q: Which “Wnt-stimulated accumulation of ρ-catenin” value (ρ-catenin) does the source give for `Oc1nc(-c2ccc(C(F)(F)F)cc2)nc2c1CSCC2` [XAV939] here?
A: blocked

Q: What about the “growth of DLD-1-cancer cells” value (DLD-1-cancer cells) of the same molecule?
A: inhibits growth
